In paper PMC3871595, “Structure Based Identification and Characterization of Flavonoids That Disrupt Human Papillomavirus-16 E6 Function” (PLoS ONE, 2013):

What was measured:
[1] = test system: primary human foreskin keratinocytes; assay: p53/p21 immunoblot analysis in primary HFKs; assay type: cell-based; settings: 40 hours
Protocol: Each compound was used to treat primary HFKs or HFKs immortalized through the over-expression of HPV16 E6 and E7 proteins.
20,000 cells per cm^2 were plated in 6-well dishes. Cells were incubated for 24 hours at which time fresh media and compound were added. After 40 hours, cells were harvested, washed with cold PBS, and lysed in RIPA buffer with protease inhibitor. Each sample was separated on a 12% SDS-page gel, transferred to Immobilon-P membrane (Millipore) and blotted for the p53 (DO-1, Santa Cruz), p21 (c-19, Santa Cruz), and actin (A2066, Sigma). Protein quantification was performed with the Fujifilm LAS-4000 Multifunctional Imaging System. The signal intensity was measured for each band on an immunoblot, normalized to the loading control, and the fold increase was determined in relation to the appropriate DMSO treated control. RNA was isolated from these cells using Trizol Reagent (Invitrogen 15596-026). cDNA was generated using the Improm-II Reverse Transcription System (Promega A3801). qPCR was performed as described in the protocol for SsoFast EvaGreen supermix (BioRad 172-5023) using an BioRad CFX96 real-time PCR machine. Melting curves for each reaction were obtained. Each sample was assayed in triplicate and every plate contained a 5-point cDNA dilution course to calculate amplification efficiency for each primer pair. The Pfaffl method was used to determine the change in transcript levels relative to the DMSO and normalized to GAPDH.

[2] = molecular target: E6 fused to a GB1-fusion tag (GBF) (Human papillomavirus type 16, UniProt P03126); assay: surface plasmon resonance direct binding, immobilized GBF-E6; set-up: species or system HPV-16; settings: 1.6-12.5 µM
Protocol: A reference cell with immobilized GBF was performed simultaneously for background subtraction. […] While direct binding was observed, the data could not be properly fit to determine binding affinity.
(§1) SPR analysis was performed on a Biacore 3000 instrument. Immobilized GBFE6 [43] was diluted to 30μg/mL in 10 mM sodium acetate, pH 4.0 and 5.0 and immobilized onto the dextran matrix of a CM5 sensor chip (Biacore) using the amine coupling method. All binding experiments were performed at 25 °C in 50 mM phosphate (pH 6.5) containing 200 mM NaCl. Pulses of 10 mM glycine (pH 3.0) were used to regenerate the surfaces between injections. […] SPR data were analyzed using BIAevaluation 4.1 software (Biacore).

[3] = molecular target: GBF-E6 binding to E6apc2 peptide (Human papillomavirus type 16, UniProt P03126); assay: SPR competition, immobilized E6apc2 peptide, GBF-E6 analyte; set-up: species or system HPV-16; settings: 1.6-12.5 µM
Protocol: The E6apc2 peptide was derived from the third zinc finger of the Sp1 protein and incorporates 10 amino acids from the charged helical domain of E6AP ([…]) at its C-terminus. […] In this experiment, E6apc2 was immobilized while E6apc1 control (E6-non-binder) was immobilized in a reference cell.
as §1

RPE-1 cells = assay: cell viability (MTS, Celltiter 96 AQueous) RPE-1; assay type: cell-based, human; settings: RPE-1 (HPV negative), 48 to 96 hours, relative to DMSO
C33a cells = assay: cell viability (MTS, Celltiter 96 AQueous) C33a; assay type: cell-based, human; settings: C33a (HPV negative), 48 to 96 hours, relative to DMSO
Protocol: (§2) HPV-18 positive HeLa cells and two additional control cell lines, C33a, a cell line derived from an HPV-negative human cervical cancer isolate, and HaCat, a spontaneously immortalized human keratinocyte cell line, were used to assess compounds for their impact on cell growth and viability. All cells were incubated for 48 to 96 hours with increasing doses of compound. Cell viability was measured by MTS based assay and % viability quantified relative to cells treated with DMSO.
(§3) For cell viability, 12,000 cells per cm^2 were plated in 96-well dishes 24 hours prior to drug addition. Fresh media and compound were added. Plates were read after 72-96 hours. Relative cell viability was assayed as directed in the Celltiter 96 AQueous one solution assay (Promega). For caspase activity, plates were assayed after 4, 8, 12, 24, or 48 hours as described for the Caspase-Glo 3/7 assay (Promega).

primary HFKs = assay: cell viability (MTS, Celltiter 96 AQueous) primary HFKs; assay type: cell-based, human; settings: 48 hours, relative to DMSO
HaCat cells = assay: cell viability (MTS, Celltiter 96 AQueous) HaCat; assay type: cell-based, human; settings: HaCat (HPV negative), 48 to 96 hours, relative to DMSO
Protocol: as §2, §3

[4] = molecular target: T1, interaction between GST-E6 and three PDZ domains of hDlg fused to BAP (hDlg-BAP) (Human papillomavirus type 16, UniProt P03126); assay: E6/hDlg-BAP specificity filter binding assay; set-up: species or system HPV-16
T1 construct: made in house; host or cells: E. coli BL21
Protocol: (§4) This interaction between E6 and hDlg occurs at the C-terminus of E6 and is independent of the interaction between E6 and the charged leucine helix in E6AP [21, 22].
Pre-Block - 96-well filter plates were prepared (0.2 µm BioTrace NT, Pall). 100µL of blocking buffer (100 mM Tris pH 8.0, 100 mM NaCl, 0.1% milk) was added per well. Plates were blocked for 1 hr at RT on an orbital shaker. Buffer was removed by vacuum filtration using a vacuum manifold. GST-E6 Bead addition – GST-E6 beads were prepared at 5µg/mL in GST-E6 bead buffer (100 mM Tris pH 8.0, 100 mM NaCl, 0.1% milk, 2.5 mM DTT). 100µL of GST-E6 bead mix was added per well and incubated for 1 hr at 4°C. Buffer was removed by vacuum filtration. […] 48 µL of each reagent was added per well. For drug assay, 2µL of compound was added to each well and mixed thoroughly. […] Plates were incubated for 1-3 hours at RT on an orbital shaker. Buffer was removed by vacuum filtration. Plates were washed on the vacuum manifold, first with 200 µL buffer (100 mM Tris pH 8.0, 100 mM NaCl, 1 mM DTT), and twice more with 100µL lysis buffer without DTT. […] 60 µL of Immunostar-AP assay reagent was added, the BAP activity was allowed to develop for 10 minutes and the plates were read on a Wallace Luminometer. BAP activity was measured as relative light units (RLU) on a luminometer using the Immunostar-AP substrate (BioRad).

[5] = test system: interaction between anti-FLAG antibody and the FLAG epitope in the E6AP-BAP fusion; assay: FLAG/BAP specificity filter binding assay
Protocol: The collection of 72 available structural-lead compounds was tested in the filter-plate based in vitro E6-E6AP binding assay. Compounds were tested twice at concentrations of 10, 50, and 100 µM. […] Compounds that disrupted the Flag-BAP interaction with the same potency as the HPV-16 E6 and E6AP interaction were classified as non-specific and eliminated from further analysis.
Figure 3 Activity of flavonoids in the in vitro binding assay. Compounds were tested in vitro for the ability to disrupt the E6-E6AP interaction. […] Percent inhibition was determined by the amount of BAP activity remaining in the well after washing and normalized to DMSO. Data was plotted by linear regression for single site binding using Prism (n=3, S.E.M.).
as §4

T1 sequence (P03126 whole entry, the tested form may be a part): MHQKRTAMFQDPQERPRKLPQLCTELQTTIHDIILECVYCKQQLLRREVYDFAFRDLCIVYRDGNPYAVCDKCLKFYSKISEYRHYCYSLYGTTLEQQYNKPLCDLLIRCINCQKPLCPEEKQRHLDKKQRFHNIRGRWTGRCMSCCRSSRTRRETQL
Sequence of E6 fused to a GB1-fusion tag (GBF) (P03126 whole entry, the tested form may be a part): as above
Sequence of GBF-E6 binding to E6apc2 peptide (P03126 whole entry, the tested form may be a part): as above

Q: `O=c1cc(-c2ccc(O)c(O)c2)oc2cc(O)cc(O)c12` [luteolin, reference compound] was tested. Which p21 protein levels [1] did it give?
A: Its p21 protein levels is “E6 independent increase in p53 and p21”.

Q: And the p53 protein levels [1]?
A: The p53 protein levels was “E6 independent increase in p53 and p21”.

Q: And the “direct binding to E6 (SPR response)” value [2]?
A: The value was “directly binds to E6 protein”.

Q: What about the “competition with E6apc2 peptide for binding to GBF-E6” value [3] of the same compound?
A: Its value is “directly competed with the peptide for binding to GBF-E6”.

Q: For `COc1cccc(-c2cc(=O)c3cc(-c4nnn[nH]4)ccc3o2)c1` [CAF-24], which p21 protein levels [1] is on record?
A: Its p21 protein levels is “little effect on p53 and p21 levels”.

Q: And the p53 protein levels [1]?
A: The p53 protein levels was “little effect on p53 and p21 levels”.

Q: And the “cell growth and viability” value (RPE-1 cells)?
A: Its value is “little effect on the viability”.

Q: What about the “cell growth and viability” value (C33a cells) of the same compound?
A: The value was “little effect on the viability”.

Q: And the “cell growth and viability” value (primary HFKs)?
A: Its value is “to a lesser extent, inhibit growth of the primary HFKs”.

Q: And the “cell growth and viability” value (HaCat cells)?
A: Its value is “little effect on the viability”.

Q: What about the “specificity against hDlg control binding reaction” value [4] of the same compound?
A: The value was “increased specificity against the FLAG and hDlg control binding reactions”.

Q: And the “non-specific inhibition / specificity in FLAG-E6AP control assay” value [5]?
A: The value was “increased specificity against the FLAG and hDlg control binding reactions”.
